Counter-ions that a name gives are not always drawn. Like-named read-outs stand apart in the source and are kept apart here.
Legend:
[1] = biological target: SARS-CoV-2 Mpro (Severe acute respiratory syndrome coronavirus 2, UniProt P0DTD1); type: biochemical; conditions: 10 μM; 1 mM DTT
[2] = biological target: SARS-CoV-2 PLpro-NAB (Severe acute respiratory syndrome coronavirus 2, UniProt P0DTD1); assay: biochemical; conditions: for Inhibition in L-cysteine buffer versus DTT buffer (dose-response): 1 mM L-cysteine vs 1 mM DTT; for Inhibitory activity on retest in 1 mM L-cysteine: 50% inhibition at 20 μM
[3] = biological target: SARS-CoV-2 PLpro (Severe acute respiratory syndrome coronavirus 2, UniProt P0DTD1); type: biochemical; conditions: dose-response, ISG15 substrate
[4] = read-out: HC PLpro-NAB SARS-CoV-2 inhibition [%] 20 µM triplicates DTT BUFFER
[5] = read-out: HP PLpro-NAB SARS-CoV-2 inhibition [%] 20 µM triplicates L-CYS BUFFER

Compound: O=c1cc(-c2cc(O)c(O)c(O)c2)oc2cc(O)c(O)c(O)c12 [DOM_SIM_710, 3′,4’,5′,5,6,7-hexahydroxyflavone]
- Preference PLpro over Mpro [1]: preferential inhibition of PLpro over Mpro
- Inhibition in L-cysteine buffer versus DTT buffer (dose-response) [2]: increased inhibition
- Inhibitory activity on retest in 1 mM L-cysteine [2]: retained their inhibitory activity
- inhibition at 20 µM ([2]; hit confirmation, 20 μM, 1 mM DTT buffer, average (SD), 20 μM PR619 = 100%, DMSO = 0%, read-out: HC PLpro-NAB inhibition [%] 20 μM triplicates 1 mM DTT buffer): 65%
- inhibition at 20 µM ([2]; hit profiling, 20 μM, 1 mM L-cys buffer, average (SD), 20 μM PR619 = 100%, read-out: HP PLpro-NAB inhibition [%] 20 μM triplicates 1 mM L-cys buffer): 155%
- IC50 ([2]; hit profiling, 1 mM DTT buffer): > 20 µM
- Interference inhibition [%] 20 µM based on product interference DTT BUFFER (Table S1, 20 µM, DTT buffer): 10.43%
- Potency against PLpro compared with PLpro-NAB [3]: higher potency against PLpro compared with PLpro-NAB

Compound: O=C(O)c1c(Cl)c(Cl)c(Cl)c(Cl)c1-c1c2cc(I)c(=O)c(I)c-2oc2c(I)c(O)c(I)cc12 [Rose Bengal Sodium]
- inhibition at 20 µM ([2]; Table S1, 20 µM, DTT buffer, average (SD), read-out: HC PLpro-NAB SARS-CoV-2 inhibition [%] 20 µM triplicates DTT BUFFER): 107%
- inhibition at 20 µM ([2]; Table S1, 20 µM, L-cysteine buffer, average (SD), read-out: HP PLpro-NAB SARS-CoV-2 inhibition [%] 20 µM triplicates L-CYS BUFFER): -32.4%
- IC50 ([2]; Table S1, DTT buffer, read-out: HP PLpro-NAB SARS-CoV-2 IC50 [µM] triplicates DTT BUFFER): > 20 µM
- IC50 ([2]; Table S1, L-cysteine buffer, read-out: HP PLpro-NAB SARS-CoV-2 IC50 [µM] duplicates L-CYS BUFFER): > 20 µM
- Interference inhibition [%] 20 µM based on product interference DTT BUFFER (Table S1, 20 µM, DTT buffer): 12.07%

Compound: CC1=CC(=O)c2ccccc2C1=O [Menadione]
- inhibition at 20 µM [2, 4]: 115%
- inhibition at 20 µM [2, 5]: -45.7%
- Interference inhibition [%] 20 µM based on product interference DTT BUFFER: -9.41%

Compound: Cc1cc(-c2ccc(/C=C3/SC(=Nc4ccc(Cl)c(C(=O)O)c4)NC3=O)o2)c([N+](=O)[O-])cc1C [PT 1]
- Interference inhibition [%] 20 µM based on product interference DTT BUFFER (Table S1, 20 µM, DTT buffer): 9.93%

Compound: Cc1nc2c(=O)n(C)c(=O)nc-2n(C)n1 [3-Methyl Toxoflavin]
- Interference inhibition [%] 20 µM based on product interference DTT BUFFER (Table S1, 20 µM, DTT buffer): 10.44%

Compound: CC1(C)CCC2=C(O1)C(=O)c1ccccc1C2=O [Alpha Lapachone]
- Interference inhibition [%] 20 µM based on product interference DTT BUFFER (Table S1, 20 µM, DTT buffer): -0.29%

Compound: COCCn1c2c([n+](Cc3cnccn3)c1C)C(=O)c1ccccc1C2=O [YM-155]
- Interference inhibition [%] 20 µM based on product interference DTT BUFFER (Table S1, 20 µM, DTT buffer): -0.69%

Compound: Cc1c(S(=O)(=O)O)oc2c1C(=O)C(=O)c1c-2ccc2c1CCCC2(C)C [Sodium-Tanshinone-ii-A-Sulfonate]
- inhibition at 20 µM [2, 5]: -51.9%
- Interference inhibition [%] 20 µM based on product interference DTT BUFFER (Table S1, 20 µM, DTT buffer): -7.60%

Compound: NC(Cc1cc(O)c(O)cc1O)C(=O)O (racemic) [6-Hydroxy-DL-DOPA]
- Interference inhibition [%] 20 µM based on product interference DTT BUFFER (Table S1, 20 µM, DTT buffer): 14.95%

Compound: O=C1C=CC(=O)c2c(O)cccc21 [Juglone]
- Interference inhibition [%] 20 µM based on product interference DTT BUFFER (Table S1, 20 µM, DTT buffer): 12.84%

Compound: O=c1c(O)cccc2cc(O)c(O)c(O)c12 [purpurogallin]
- Preference PLpro over Mpro [1]: preferential inhibition of PLpro over Mpro
- Inhibition in L-cysteine buffer versus DTT buffer (dose-response) [2]: increased inhibition
- Inhibitory activity on retest in 1 mM L-cysteine [2]: retained their inhibitory activity
- inhibition at 20 µM ([2]; read-out: HC PLpro-NAB inhibition [%] 20 μM triplicates 1 mM DTT buffer): 62.8%
- inhibition at 20 µM ([2]; read-out: HP PLpro-NAB inhibition [%] 20 μM triplicates 1 mM L-cys buffer): 101%
- Interference inhibition [%] 20 µM based on product interference DTT BUFFER (Table S1, 20 µM, DTT buffer): 12.84%
- Potency against PLpro compared with PLpro-NAB [3]: higher potency against PLpro compared with PLpro-NAB

Compound: Ro-08-2750
- Interference inhibition [%] 20 µM based on product interference DTT BUFFER (Table S1, 20 µM, DTT buffer): 0.17%

Compound: O=c1ccc2[n+]([O-])c3ccc(O)cc3oc-2c1 [Resazurin (sodium salt), Resazurin]
- inhibition at 20 µM [2, 4]: 72.9%
- inhibition at 20 µM [2, 5]: -36.5%
- Interference inhibition [%] 20 µM based on product interference DTT BUFFER (Table S1, 20 µM, DTT buffer): 11.91%

Compound: N#CSc1cc(SC#N)c(N)nc1N [PR-619]
- Inhibition of Mpro [1]: inhibition of both proteases from SARS-CoV-2
- Interference inhibition [%] 20 µM based on product interference DTT BUFFER (Table S1, 20 µM, DTT buffer): -14.28%

Compound: Cc1cc(-c2ccc(/N=N/c3ccc4c(S(=O)(=O)O)cc(S(=O)(=O)O)c(N)c4c3O)c(C)c2)ccc1/N=N/c1ccc2c(S(=O)(=O)O)cc(S(=O)(=O)O)c(N)c2c1O [Evans Blue]
- Interference inhibition [%] 20 µM based on product interference DTT BUFFER (Table S1, 20 µM, DTT buffer): 6.47%

Compound: Nc1ccc(O)c2ncccc12 [PD119507]
- Interference inhibition [%] 20 µM based on product interference DTT BUFFER (Table S1, 20 µM, DTT buffer): 3.43%

Compound: Cc1cccc2c3c(ccc12)C1=C(C(=O)C3=O)[C@@H](C)CO1 [Dihydrotanshinone I]
- Interference inhibition [%] 20 µM based on product interference DTT BUFFER (Table S1, 20 µM, DTT buffer): -55.01%

Compound: Chicago-Sky-Blue-6b
- Interference inhibition [%] 20 µM based on product interference DTT BUFFER (Table S1, 20 µM, DTT buffer): -5.59%

Compound: CC1(C)CCC2=C(O1)c1ccccc1C(=O)C2=O [Beta-Lapachone]
- Interference inhibition [%] 20 µM based on product interference DTT BUFFER (Table S1, 20 µM, DTT buffer): 13.40%

Compound: C[C@H]1COC2=C1C(=O)C(=O)c1c2ccc2c1CCCC2(C)C [Cryptotanshinone]
- Interference inhibition [%] 20 µM based on product interference DTT BUFFER (Table S1, 20 µM, DTT buffer): 3.37%
